Measured values taken from patent US9856304B2, “Peptide and application thereof” (Saitama Medical University, priority 2013, dated 2018).

Columns and labels:
[1] = test system: human iPS cells (253G1 cells); test: Differentiation induction of human iPS cells into pancreatic hormone-producing cells (1), quantitative RT-PCR; format: cell-based; conditions: 3 nM betagenin in step (D2), 11 days, vs DMSO control, Day 10 cells taken as 1, FIG. 2
From the text: As human iPS cells, used were 253G1 cells purchased from the cell bank at RIKEN, TIG3/KOSM cells provided by Dr. Mitani at Saitama Medical University, 200-9 cells, a clone in which a reporter gene is introduced into TIG3/KOSM cells. TIG3/KOSM cells were established at The National Institute of Advanced Industrial Science and Technology by introducing 4 factors (the OCT gene, the KLF gene, the SOX gene, the MYC gene) into TIG-3 cells using Sendai virus (Nishimura, K. et al., J. Biol. Chem., 286, pp. 4760-4771 (2011)).
These cells were cultured/maintained in an ES cell culture medium (DMEM/ham F12, 20% KSR, nonessential amino acid, 2 mM L-glutamine, 0.1 mM 2-mercaptoethanol, 5.2 mM NaOH) with added 4 ng/mL FGF-2 (Global Stem) and penicillin/streptomycin (Nacalai Tesque, Inc.) along with SNL76/7 cells (DS Pharma Biomedical) treated with mitomycin-C. […]
The gene expression of insulin was confirmed by quantitative RT-PCR for the cells (n=2 for each of the betagenin addition group and the control group) obtained from 253G1 cells via the above steps (A2) to (D2). Specifically, total RNA was first extracted from the cells using a SV Total RNA Isolation System (Promega), and reverse transcription reactions were performed with BioScript™ transcriptase (Bioline), and then quantitative PCR analysis was performed using SYBR™ Green PCR Master Mix (Applied Biosystems). […]

[2] = test system: MIN6 cells (pancreatic β cell line); test: EdU cell proliferation assay, growth promotion of pancreatic β cells (3), versus Peptides A, B, C; format: cell-based; conditions: betagenin 1 nM compared with Peptides A, C at 3 nM or 5 nM, FIG. 5
Procedure: MIN6 cells provided by Dr. Miyazaki at Osaka University were used as a pancreatic β cell line. MIN6 cells were maintained in a DMEM culture medium with added 15% (v/v) of FBS.
A DMSO solution was prepared so that the concentration of chemically synthesized betagenin was 97% of purity, as a pancreatic hormone-producing cell growth-promoting agent.
Further, for comparison, Peptides A, B, C consisting of the amino acid sequences set forth in SEQ ID Nos: 4 to 6, respectively, were prepared by chemical synthesis.
First, MIN6 cells were plated on a collagen-coated 8-well slide chamber (BD Falcon, Product Number 354630) at a cell density of 1×10^4 cells/well for confirming the growth promotion of pancreas β cells. After 24 hours, the culture medium was replaced with a DMEM culture medium with added 0.5% (v/v) of FBS, and then serum starvation was performed for 72 hours. Note that the culture medium was replaced with a fresh culture medium 48 hours after the start of serum starvation. […]
The incorporated EdU was visualized as red fluorescence using Alexa Flour™ 594, and observed with a fluorescence microscope (Carl Zeiss). […] Note that a red fluorescence part representing a region where EdU was taken up will be confirmed as a dark black part due to the operations of black and white processing and black and white inversion.

Substance: betagenin: chemically synthesized peptide of SEQ ID NO: 1, fragment of human TM4SF20 from Position 170 to Position 229 (WRASSFHFDSEENKHRLIHFSVFLGLLLVGILEVLFGLSQIVIGFLGCLCGVSKRRSQIV; Peptide Sequence betagenin; listed as Homo sapiens)
- amount of insulin expression (relative) [1]: increased
- EdU uptake in fluorescence microscope images (dark black parts) [2]: significantly darker black parts
